{
  "source": "patent US20140135327A1",
  "about": "“N- (2 -AMINOPHENYL) BENZAMIDE DERIVATIVES AS HISTONE DEACETYLASE INHIBITORS” (CANCER RESEARCH TECHNOLOGY LIMITED, priority 2011, published 2014)",
  "format_in_all_cases": "biochemical",
  "key": {"[1]": {"molecular_target": "T1, HDAC 3 (Homo sapiens, UniProt O15379)", "T1 sequence (O15379 whole entry, species assumed)": "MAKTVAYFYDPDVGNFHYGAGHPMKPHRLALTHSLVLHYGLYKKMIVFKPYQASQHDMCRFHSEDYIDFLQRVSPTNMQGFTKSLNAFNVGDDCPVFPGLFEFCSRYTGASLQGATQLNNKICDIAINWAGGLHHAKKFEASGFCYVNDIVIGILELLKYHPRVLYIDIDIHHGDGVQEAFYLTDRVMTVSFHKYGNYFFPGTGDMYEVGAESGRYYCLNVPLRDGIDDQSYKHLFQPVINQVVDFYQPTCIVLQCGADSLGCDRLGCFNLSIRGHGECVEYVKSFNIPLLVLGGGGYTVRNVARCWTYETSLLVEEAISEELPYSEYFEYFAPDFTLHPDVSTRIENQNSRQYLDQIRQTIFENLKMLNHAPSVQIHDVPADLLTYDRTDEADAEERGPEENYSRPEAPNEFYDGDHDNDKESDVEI", "T1 sequence (Q9Y618 395-489 partner limits assumed, species assumed)": "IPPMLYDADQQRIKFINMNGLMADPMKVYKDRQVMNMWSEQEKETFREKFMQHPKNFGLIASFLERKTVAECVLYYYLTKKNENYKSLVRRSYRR", "assay": "Caliper HDAC inhibitor profiling assay (microfluidic mobility-shift), HDAC 3", "details": "1 hour at room temperature, read-out: IC50 (μM) HDAC3", "method": "The activity of the compounds of the invention against HDAC 3 (Class I) and HDAC 6 (Class II) can be determined using the Caliper Life Sciences HDAC inhibitor profiling assay, which utilises microfluidic mobility-shift detection.\nReaction buffer: 25 mM Tris/Cl, pH 8.0, 137 mM NaCl, 2.7 mM KCl, 1 mM MgCl2, 0.1 mg/ml BSA (fatty acid free).\nStop Buffer: 100 mM HEPES, pH 7.5, 10 mM EDTA, 0.04% Brij-35, 0.25% CR-3, and 2.5 μM Trichostatin A.\nStopped reactions were assembled in microtiter plate wells by adding 1 μL of the inhibitor compound in DMSO, 15 μL 2× Enzyme, and 15 μL 2× peptide. The reactions were incubated for 1 hour at room temperature, stopped with the addition of 45 μL Stop Solution, and read on the LabChip EZ Reader®. The curves were fit with sigmoidal dose response algorithm using GraphPad Prism."}, "[2]": {"molecular_target": "T2, HDAC 2 (Homo sapiens, UniProt Q92769)", "T2 construct": "HDACs 1, 2, 3, 6, and 8 were expressed as full length fusion proteins; 6xHis; made in house; host or cells: Sf9 cells (baculovirus)", "T2 sequence (Q92769 whole entry, species assumed, the tested form may be a part, canonical isoform)": "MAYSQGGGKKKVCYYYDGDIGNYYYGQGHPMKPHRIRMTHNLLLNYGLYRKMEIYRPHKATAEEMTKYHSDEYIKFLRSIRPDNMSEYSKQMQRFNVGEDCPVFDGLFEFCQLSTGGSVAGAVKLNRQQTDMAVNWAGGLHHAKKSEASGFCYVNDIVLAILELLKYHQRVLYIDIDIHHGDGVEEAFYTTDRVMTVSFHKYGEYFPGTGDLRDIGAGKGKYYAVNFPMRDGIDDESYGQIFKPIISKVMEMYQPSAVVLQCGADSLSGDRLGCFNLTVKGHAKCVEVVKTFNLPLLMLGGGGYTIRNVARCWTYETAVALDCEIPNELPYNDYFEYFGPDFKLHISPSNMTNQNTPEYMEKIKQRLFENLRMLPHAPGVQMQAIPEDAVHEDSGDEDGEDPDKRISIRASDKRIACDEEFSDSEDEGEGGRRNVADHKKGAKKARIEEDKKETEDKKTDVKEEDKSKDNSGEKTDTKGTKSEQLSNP", "assay": "Fluorescence-based HDAC isoform assay with electrophoretic separation, HDAC 2", "details": "isolated 6×His-tagged isoform, 1 μM FAM-labeled acetylated peptide, 17 h at 25° C.", "method": "(§1) The inhibitory effects of the compounds of Examples 7 and 9 above on HDAC activity were determined using a fluorescence-based assay with electrophoretic separation of substrate and product carried out using a microfluidic system followed by quantitation of fluorescence intensity in the substrate and product peaks.\n(§2) The assays were performed using isolated HDAC isoforms that had been expressed as 6×His-tagged fusion proteins in a baculovirus expression system in Sf9 cells. HDACs 1, 2, 3, 6, and 8 were expressed as full length fusion proteins. For HDAC-4 and 7 only catalytic domains were expressed (HDAC-4 CAT and HDAC-7 CAT). The HDAC10 fusion protein was expressed as a carboxy-terminal deletion of 38 amino acids (residues 632-669). HDAC3 was coexpressed with a fragment of the SMRT gene (residues 395-489) to generate enzymatically active protein. Purified proteins were incubated with 1 μM carboxyfluorescein (FAM)-labeled acetylated peptide substrate and test compound for 17 h at 25° C. in HDAC assay buffer containing 100 mM HEPES (pH 7.5), 25 mM KCl, 0.1% BSA, and 0.01% Triton X-100. […] Substrate and product were separated electrophoretically using a Caliper LabChip 3000 system with blue laser excitation and green fluorescence detection (CCD2). The fluorescence intensity in the substrate and product peaks was determined using the Well Analyzer software on the Caliper system. […]"}, "[3]": {"molecular_target": "T1, HDAC 3", "assay": "Fluorescence-based HDAC isoform assay with electrophoretic separation, HDAC 3 (coexpressed with SMRT fragment)", "details": "HDAC3 coexpressed with SMRT fragment (residues 395-489), 1 μM FAM-labeled acetylated peptide, 17 h at 25° C.", "method": "as §1, §2"}, "[4]": {"molecular_target": "T3, HDAC 4-CAT (Homo sapiens, UniProt P56524)", "T3 construct": "For HDAC-4 and 7 only catalytic domains were expressed (HDAC-4 CAT and HDAC-7 CAT); 6xHis; made in house; host or cells: Sf9 cells (baculovirus)", "T3 sequence (P56524 655-1084 limits assumed)": "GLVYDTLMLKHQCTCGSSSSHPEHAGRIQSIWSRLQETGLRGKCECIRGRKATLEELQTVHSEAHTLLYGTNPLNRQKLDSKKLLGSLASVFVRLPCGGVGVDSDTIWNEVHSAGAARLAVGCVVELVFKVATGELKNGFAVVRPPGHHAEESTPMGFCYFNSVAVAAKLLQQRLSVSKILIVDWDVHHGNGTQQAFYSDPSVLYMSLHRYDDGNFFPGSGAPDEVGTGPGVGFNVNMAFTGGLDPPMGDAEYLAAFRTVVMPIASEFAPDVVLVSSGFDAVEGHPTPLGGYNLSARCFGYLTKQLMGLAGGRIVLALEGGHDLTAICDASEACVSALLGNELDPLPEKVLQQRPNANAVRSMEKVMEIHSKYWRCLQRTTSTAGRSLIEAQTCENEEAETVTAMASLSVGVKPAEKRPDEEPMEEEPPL", "assay": "Fluorescence-based HDAC isoform assay with electrophoretic separation, HDAC 4-CAT", "details": "catalytic domain only, 1 μM FAM-labeled acetylated peptide, 17 h at 25° C.", "method": "as §1, §2"}, "[5]": {"molecular_target": "T4, HDAC 6 (Homo sapiens, UniProt Q9UBN7)", "T4 sequence (Q9UBN7 1-1215)": "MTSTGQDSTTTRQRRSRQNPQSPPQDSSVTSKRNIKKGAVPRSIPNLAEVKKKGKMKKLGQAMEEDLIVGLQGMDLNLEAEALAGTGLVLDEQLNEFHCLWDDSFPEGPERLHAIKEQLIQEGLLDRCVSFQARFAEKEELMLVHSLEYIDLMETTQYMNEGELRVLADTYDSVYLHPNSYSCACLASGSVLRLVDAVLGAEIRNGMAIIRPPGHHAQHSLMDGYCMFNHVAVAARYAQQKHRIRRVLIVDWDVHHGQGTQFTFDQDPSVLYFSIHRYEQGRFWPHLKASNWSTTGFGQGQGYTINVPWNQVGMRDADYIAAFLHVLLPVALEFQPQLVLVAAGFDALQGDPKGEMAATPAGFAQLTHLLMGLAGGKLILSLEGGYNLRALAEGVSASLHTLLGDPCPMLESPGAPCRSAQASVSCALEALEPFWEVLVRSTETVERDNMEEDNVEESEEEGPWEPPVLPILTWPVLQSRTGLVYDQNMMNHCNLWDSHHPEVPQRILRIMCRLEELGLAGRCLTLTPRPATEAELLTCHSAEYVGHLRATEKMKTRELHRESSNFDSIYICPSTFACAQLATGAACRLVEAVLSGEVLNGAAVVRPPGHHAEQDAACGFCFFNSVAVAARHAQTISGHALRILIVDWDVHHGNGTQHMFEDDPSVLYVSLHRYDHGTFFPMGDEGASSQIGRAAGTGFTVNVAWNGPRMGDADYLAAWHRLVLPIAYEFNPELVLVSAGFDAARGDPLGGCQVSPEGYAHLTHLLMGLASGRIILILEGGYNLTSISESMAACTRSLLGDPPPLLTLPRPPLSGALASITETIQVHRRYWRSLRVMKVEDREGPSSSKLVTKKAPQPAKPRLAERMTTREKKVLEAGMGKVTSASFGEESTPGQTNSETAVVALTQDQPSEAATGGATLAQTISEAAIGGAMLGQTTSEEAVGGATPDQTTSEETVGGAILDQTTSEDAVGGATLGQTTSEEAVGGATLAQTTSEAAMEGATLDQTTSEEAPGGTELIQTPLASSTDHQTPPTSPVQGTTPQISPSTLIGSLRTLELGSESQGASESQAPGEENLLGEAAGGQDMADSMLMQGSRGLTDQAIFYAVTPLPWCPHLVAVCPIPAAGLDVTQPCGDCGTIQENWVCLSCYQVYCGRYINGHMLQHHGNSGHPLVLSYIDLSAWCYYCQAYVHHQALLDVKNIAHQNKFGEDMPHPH", "assay": "Fluorescence-based HDAC isoform assay with electrophoretic separation, HDAC 6", "details": "isolated 6×His-tagged isoform, 1 μM FAM-labeled acetylated peptide, 17 h at 25° C.", "method": "as §1, §2"}},
  "data": [
    {"smiles": "C=C1CN(Cc2ccc(C(=O)Nc3ccccc3N)cc2)C(=O)c2ccccc21", "note": "[Example 7, N-(2-Aminophenyl)-4-[(4-methylene-1-oxo-3,4-dihydroisoquino-2(1H)-yl)methyl]benzamide]", "values": [
      {"measurement": "IC50", "setting": "[1]", "value": 0.22, "unit": "µM"},
      {"measurement": "IC50", "setting": "[2]", "value": 0.0544, "unit": "µM"},
      {"measurement": "IC50", "setting": "[3]", "value": 0.0287, "unit": "µM"},
      {"measurement": "IC50", "setting": "[4]", "value": 9.22, "unit": "µM"},
      {"measurement": "IC50", "setting": "[5]", "value": "> 30", "unit": "µM"}
    ]},
    {"smiles": "C=C1CN(Cc2ccc(C(=O)Nc3ccccc3N)cc2)C(CC(=O)O)c2ccccc21", "note": "(stereo not shown) [Example 9, [2-(4-{[(2-Aminophenyl)amino]carbonyl}benzyl)-4-methylene-1,2,3,4-tetra hydroisoquinolin-1-yl]acetic acid]", "values": [
      {"measurement": "IC50", "setting": "[1]", "value": 0.78, "unit": "µM"},
      {"measurement": "IC50", "setting": "[2]", "value": 2.11, "unit": "µM"},
      {"measurement": "IC50", "setting": "[3]", "value": 0.797, "unit": "µM"},
      {"measurement": "IC50", "setting": "[4]", "value": "> 30", "unit": "µM"},
      {"measurement": "IC50", "setting": "[5]", "value": "> 30", "unit": "µM"}
    ]}
  ]
}
